This note sets out measurements from ChEMBL document CHEMBL4477246, “New small molecule inhibitors of histone methyl transferase DOT1L with a nitrile as a non-traditional replacement for heavy halogen atoms” (Bioorg Med Chem Lett, 2016).

The structures appear in SMILES notation. pIC50: −log10 of the molar value.

The target in assay [1] is DNA (cytosine-5)-methyltransferase 1 (Homo sapiens, UniProt P26358). The assay is described as follows: Inhibition of DNMT1 (unknown origin).
Assay [2] deals with Protein arginine N-methyltransferase 3 (Homo sapiens, UniProt O60678). The assay is described as follows: Inhibition of PRMT3 (unknown origin).
Protein arginine N-methyltransferase 3, sequence (O60678 whole entry): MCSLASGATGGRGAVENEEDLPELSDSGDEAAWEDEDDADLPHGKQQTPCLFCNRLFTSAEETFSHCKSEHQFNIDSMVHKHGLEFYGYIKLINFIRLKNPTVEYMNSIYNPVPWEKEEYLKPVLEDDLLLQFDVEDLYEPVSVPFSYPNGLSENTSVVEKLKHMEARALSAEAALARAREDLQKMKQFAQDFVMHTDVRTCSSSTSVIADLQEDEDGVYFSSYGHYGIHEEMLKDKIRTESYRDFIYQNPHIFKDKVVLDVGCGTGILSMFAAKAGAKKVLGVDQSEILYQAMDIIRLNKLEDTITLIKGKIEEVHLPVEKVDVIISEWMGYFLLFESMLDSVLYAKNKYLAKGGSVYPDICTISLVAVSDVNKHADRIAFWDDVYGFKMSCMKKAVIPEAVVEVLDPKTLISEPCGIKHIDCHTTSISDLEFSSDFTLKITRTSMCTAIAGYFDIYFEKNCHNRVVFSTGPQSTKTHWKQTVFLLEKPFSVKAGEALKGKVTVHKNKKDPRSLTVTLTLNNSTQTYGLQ
Assay [3] deals with Protein arginine N-methyltransferase 5 (Homo sapiens, UniProt O14744). The assay is described as follows: Inhibition of PRMT5 (unknown origin).
Assay [4] has as its target T1, Histone-lysine N-methyltransferase EHMT2 (Homo sapiens, UniProt Q96KQ7).
T1 sequence (Q96KQ7 whole entry): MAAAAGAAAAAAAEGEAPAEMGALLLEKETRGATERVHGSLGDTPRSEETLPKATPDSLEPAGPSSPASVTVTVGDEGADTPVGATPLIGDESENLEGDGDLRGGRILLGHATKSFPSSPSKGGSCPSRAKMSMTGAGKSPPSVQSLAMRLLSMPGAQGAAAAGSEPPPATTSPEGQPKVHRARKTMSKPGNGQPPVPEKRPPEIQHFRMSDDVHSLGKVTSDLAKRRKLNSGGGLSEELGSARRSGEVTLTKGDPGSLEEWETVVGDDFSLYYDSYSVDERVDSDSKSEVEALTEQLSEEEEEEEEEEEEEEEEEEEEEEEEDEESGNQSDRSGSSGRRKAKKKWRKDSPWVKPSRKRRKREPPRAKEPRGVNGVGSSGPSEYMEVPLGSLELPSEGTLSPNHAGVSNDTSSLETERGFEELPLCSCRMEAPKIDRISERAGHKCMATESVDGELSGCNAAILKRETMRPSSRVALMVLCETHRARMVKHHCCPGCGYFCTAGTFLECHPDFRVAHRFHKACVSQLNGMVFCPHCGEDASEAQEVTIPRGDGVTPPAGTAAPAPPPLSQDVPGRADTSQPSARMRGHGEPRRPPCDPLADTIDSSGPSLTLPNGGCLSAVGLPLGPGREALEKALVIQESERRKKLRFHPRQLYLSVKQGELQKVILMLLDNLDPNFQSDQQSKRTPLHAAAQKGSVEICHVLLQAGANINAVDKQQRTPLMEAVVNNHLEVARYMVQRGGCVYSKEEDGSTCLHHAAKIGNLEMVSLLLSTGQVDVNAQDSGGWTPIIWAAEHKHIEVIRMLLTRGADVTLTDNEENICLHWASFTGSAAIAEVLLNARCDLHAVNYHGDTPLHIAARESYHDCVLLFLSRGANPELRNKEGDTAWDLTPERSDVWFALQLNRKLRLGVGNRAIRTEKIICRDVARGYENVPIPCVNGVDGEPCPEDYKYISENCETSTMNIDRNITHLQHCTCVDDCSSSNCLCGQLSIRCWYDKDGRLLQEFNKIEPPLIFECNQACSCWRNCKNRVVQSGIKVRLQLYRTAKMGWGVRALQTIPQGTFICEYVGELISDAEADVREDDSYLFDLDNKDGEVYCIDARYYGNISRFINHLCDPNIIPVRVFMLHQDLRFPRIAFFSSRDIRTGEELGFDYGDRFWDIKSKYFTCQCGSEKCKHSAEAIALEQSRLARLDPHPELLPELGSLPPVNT
The assay is described as follows: Inhibition of G9a (unknown origin).

Assay [5] has as its target T2, Histone-lysine N-methyltransferase SETD7 (Homo sapiens, UniProt Q8WTS6).
T2 sequence (Q8WTS6 whole entry): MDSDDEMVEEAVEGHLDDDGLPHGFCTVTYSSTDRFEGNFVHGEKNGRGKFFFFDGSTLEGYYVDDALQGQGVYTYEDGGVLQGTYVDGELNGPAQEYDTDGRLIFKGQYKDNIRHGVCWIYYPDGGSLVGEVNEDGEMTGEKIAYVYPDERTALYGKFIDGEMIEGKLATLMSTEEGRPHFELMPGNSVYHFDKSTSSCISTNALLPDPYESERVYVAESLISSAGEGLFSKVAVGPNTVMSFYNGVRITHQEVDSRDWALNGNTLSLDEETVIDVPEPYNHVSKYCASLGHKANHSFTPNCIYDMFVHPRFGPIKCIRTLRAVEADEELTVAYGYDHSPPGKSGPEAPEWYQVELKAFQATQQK
The assay is described as follows: Inhibition of SETD7 (unknown origin).

In assay [6] the target is Histone-lysine N-methyltransferase SUV39H2 (Homo sapiens, UniProt Q9H5I1). As to the kind of experiment: Inhibition of SUV39H2 (unknown origin).
Histone-lysine N-methyltransferase SUV39H2, sequence (Q9H5I1 whole entry): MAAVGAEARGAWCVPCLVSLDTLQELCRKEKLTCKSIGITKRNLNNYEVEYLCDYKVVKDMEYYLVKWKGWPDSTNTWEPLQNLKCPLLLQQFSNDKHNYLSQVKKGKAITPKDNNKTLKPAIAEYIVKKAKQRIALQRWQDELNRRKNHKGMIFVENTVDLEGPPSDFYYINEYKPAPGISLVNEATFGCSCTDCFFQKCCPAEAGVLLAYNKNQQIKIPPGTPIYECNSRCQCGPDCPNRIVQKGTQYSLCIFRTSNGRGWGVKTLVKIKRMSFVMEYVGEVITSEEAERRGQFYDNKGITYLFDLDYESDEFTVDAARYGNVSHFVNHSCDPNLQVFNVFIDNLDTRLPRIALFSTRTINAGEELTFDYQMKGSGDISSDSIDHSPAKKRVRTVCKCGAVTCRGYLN
The target in assay [7] is Histone-lysine N-methyltransferase EZH2 (Homo sapiens, UniProt Q15910). As to the kind of experiment: Inhibition of EZH2 (unknown origin).
Histone-lysine N-methyltransferase EZH2, sequence (Q15910 whole entry): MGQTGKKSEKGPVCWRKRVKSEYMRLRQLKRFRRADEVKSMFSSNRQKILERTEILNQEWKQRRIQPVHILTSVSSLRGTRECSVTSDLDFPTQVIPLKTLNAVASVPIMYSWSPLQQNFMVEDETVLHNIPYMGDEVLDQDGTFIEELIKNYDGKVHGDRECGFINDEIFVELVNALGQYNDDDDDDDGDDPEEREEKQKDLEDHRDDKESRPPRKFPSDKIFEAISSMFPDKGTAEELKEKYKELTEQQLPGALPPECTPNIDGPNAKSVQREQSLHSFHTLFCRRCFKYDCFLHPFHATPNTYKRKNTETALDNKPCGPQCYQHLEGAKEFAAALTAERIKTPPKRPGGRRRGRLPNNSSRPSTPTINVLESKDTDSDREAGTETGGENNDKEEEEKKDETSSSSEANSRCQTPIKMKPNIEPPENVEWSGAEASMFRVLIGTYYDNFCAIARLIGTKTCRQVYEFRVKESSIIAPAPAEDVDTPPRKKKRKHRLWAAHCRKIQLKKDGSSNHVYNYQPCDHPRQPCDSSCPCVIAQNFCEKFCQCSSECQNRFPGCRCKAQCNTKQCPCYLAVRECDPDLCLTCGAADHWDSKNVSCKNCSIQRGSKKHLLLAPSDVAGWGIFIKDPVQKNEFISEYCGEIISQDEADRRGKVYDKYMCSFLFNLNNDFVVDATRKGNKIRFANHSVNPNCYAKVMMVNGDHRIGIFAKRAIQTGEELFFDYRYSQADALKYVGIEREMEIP
The target in assay [8] is T3, Histone-lysine N-methyltransferase, H3 lysine-79 specific (Homo sapiens, UniProt Q8TEK3). The assay is described as follows: Inhibition of DOT1L (unknown origin) at 250 uM using chicken nucleosome as substrate in presence of [3H]SAM incubated for 1 hr by TopCount method.
Target sequence in this assay (Q8TEK3 whole entry, looked up): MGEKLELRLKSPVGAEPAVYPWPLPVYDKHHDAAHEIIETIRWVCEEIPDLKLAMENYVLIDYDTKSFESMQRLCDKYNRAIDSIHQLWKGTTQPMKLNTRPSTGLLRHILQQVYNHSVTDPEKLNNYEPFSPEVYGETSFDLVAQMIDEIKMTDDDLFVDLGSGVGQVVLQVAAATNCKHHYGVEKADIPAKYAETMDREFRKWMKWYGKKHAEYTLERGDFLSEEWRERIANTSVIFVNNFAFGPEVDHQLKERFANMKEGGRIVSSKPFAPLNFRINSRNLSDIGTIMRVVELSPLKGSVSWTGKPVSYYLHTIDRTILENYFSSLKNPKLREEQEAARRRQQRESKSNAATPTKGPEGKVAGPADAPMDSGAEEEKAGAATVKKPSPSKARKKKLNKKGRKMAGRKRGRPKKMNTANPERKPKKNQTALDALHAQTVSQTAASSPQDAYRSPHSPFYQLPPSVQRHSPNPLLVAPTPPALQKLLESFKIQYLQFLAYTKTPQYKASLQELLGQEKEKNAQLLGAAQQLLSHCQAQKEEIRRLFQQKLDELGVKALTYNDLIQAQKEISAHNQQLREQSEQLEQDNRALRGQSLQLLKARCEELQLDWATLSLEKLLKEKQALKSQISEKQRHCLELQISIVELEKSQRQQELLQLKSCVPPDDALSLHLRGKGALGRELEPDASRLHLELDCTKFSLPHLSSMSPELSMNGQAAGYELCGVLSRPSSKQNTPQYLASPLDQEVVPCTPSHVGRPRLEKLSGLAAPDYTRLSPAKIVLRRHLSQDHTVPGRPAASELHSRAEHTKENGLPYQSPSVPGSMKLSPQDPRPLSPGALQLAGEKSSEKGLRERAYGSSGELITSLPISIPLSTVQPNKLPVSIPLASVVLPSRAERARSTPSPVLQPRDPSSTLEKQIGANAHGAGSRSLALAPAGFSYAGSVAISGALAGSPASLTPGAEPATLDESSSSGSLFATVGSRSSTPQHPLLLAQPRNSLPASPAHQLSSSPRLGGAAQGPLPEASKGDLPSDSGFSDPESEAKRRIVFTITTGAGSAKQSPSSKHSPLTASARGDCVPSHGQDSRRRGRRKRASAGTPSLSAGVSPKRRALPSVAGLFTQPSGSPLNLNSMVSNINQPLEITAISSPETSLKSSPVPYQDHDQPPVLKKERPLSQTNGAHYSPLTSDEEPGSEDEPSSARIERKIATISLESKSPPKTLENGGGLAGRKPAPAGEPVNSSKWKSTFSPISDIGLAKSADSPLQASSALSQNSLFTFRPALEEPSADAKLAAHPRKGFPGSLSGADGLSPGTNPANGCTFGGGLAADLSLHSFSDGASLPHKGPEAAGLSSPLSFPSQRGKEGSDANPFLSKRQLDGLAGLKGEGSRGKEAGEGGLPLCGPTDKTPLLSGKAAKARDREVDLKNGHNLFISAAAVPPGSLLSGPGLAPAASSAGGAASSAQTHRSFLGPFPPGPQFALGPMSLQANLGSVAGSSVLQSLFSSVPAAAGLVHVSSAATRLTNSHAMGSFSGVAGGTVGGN
In assay [9] the target is T3, Histone-lysine N-methyltransferase, H3 lysine-79 specific. As to the kind of experiment: Inhibition of DOT1L (unknown origin) using chicken nucleosome as substrate in presence of [3H]SAM incubated for 1 hr by TopCount method.
Target sequence in this assay (Q8TEK3 whole entry): as the sequence (Q8TEK3 whole entry, looked up) above

DNA (cytosine-5)-methyltransferase 1, sequence (P26358 whole entry): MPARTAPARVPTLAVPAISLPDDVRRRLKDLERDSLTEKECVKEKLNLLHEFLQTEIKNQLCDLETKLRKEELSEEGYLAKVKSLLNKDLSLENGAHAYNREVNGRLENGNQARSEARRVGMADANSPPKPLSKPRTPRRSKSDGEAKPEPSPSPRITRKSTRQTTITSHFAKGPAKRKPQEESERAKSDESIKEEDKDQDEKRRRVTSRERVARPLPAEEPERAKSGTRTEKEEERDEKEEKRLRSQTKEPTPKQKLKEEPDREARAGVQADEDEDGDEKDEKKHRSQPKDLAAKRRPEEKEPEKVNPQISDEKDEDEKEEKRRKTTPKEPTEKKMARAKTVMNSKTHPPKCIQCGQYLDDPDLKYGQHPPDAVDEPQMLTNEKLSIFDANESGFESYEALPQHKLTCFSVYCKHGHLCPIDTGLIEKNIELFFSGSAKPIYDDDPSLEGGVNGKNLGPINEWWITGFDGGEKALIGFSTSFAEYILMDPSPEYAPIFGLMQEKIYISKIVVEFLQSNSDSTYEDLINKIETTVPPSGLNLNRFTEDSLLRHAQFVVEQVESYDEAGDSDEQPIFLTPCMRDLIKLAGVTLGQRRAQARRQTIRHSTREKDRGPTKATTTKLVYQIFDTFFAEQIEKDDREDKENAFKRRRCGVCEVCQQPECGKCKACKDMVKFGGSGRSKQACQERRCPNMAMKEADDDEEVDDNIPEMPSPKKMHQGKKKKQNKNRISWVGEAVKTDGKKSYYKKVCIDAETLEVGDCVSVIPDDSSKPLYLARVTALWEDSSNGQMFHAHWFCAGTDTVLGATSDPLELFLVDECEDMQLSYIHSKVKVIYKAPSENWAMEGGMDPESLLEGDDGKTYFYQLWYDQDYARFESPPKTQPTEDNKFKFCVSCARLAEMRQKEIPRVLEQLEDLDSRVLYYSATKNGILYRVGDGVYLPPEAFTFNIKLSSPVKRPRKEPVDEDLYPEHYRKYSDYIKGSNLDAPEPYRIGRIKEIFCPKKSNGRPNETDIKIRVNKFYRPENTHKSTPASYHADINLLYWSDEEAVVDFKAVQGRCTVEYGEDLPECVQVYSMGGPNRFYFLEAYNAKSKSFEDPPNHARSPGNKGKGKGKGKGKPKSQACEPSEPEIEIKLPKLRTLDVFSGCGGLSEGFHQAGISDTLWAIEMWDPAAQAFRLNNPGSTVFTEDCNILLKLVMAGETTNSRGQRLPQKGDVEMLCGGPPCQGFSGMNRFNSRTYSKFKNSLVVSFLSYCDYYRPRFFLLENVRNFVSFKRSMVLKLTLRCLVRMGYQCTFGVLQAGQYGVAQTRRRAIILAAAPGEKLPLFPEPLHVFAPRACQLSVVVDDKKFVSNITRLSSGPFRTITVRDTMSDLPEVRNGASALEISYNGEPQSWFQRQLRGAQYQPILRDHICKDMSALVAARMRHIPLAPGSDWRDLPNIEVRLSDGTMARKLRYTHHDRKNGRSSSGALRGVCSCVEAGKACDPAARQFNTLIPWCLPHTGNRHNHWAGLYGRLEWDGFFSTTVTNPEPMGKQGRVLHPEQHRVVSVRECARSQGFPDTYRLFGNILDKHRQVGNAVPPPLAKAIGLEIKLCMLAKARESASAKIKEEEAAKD

As for `N#Cc1cn([C@@H]2O[C@H](CSCC[C@H](N)C(=O)O)[C@@H](O)[C@H]2O)c2ncnc(N)c12`, the pIC50 in assay [1] was 6.82; in assay [2], 6.06; in [3] it was 5.62; in assay [4], 4.00. Further, the IC50 result in assay [5], in assay [6] and in [7] was “Not Active” throughout.

Regarding `Nc1ncnc2c1ncn2[C@@H]1O[C@H](CSCC[C@H](N)C(=O)O)[C@@H](O)[C@H]1O` [S-ADENOSYLHOMOCYSTEINE], the pIC50 in assay [2] is 5.70; in assay [5] (read-out: IC50) it was 4.33; in assay [6] (read-out: IC50) it was 4.66.

As for `COc1ccc(Cc2cn([C@@H]3O[C@H](CO)[C@@H](O)[C@H]3O)c3ncnc(N)c23)cc1`, the inhibition in [8] worked out at 42%.

Take `Nc1ncnc2c1c(F)cn2[C@@H]1O[C@H](CO)[C@@H](O)[C@H]1O`: the pIC50 in [9] was 3.70.

Turning to `N#Cc1cn([C@@H]2O[C@H](CO)[C@@H](O)[C@H]2O)c2ncnc(N)c12` [TOYOCAMYCIN], the pIC50 in assay [9] was 4.36.

In the case of `N#Cc1c(Br)n([C@@H]2O[C@H](CO)[C@@H](O)[C@H]2O)c2ncnc(N)c12`, the pIC50 in assay [9] is 3.70.

Turning to `Nc1ncnc2c1c(-c1ncco1)cn2[C@@H]1O[C@H](CO)[C@@H](O)[C@H]1O`, the pIC50 in [9] was 4.37.

Turning to `Nc1ncnc2c1c(I)nn2[C@@H]1O[C@H](CO)[C@@H](O)[C@H]1O`, the pIC50 in assay [9] is 4.66.

Turning to `C#Cc1cn([C@@H]2O[C@H](CO)[C@@H](O)[C@H]2O)c2ncnc(N)c12`, in assay [9], the pIC50 was 4.39.

As for `NC(=O)c1cn([C@@H]2O[C@H](CO)[C@@H](O)[C@H]2O)c2ncnc(N)c12` [SANGIVAMYCIN], in assay [9], the pIC50 was 4.59.
